Experimental data: patent US20090176817A1, “Method of Treatment of Diarrhea-Predominant Irritable Bowel Syndrome in a Subject” (priority 2005, published 2009)

Tested on: diarrhea-predominant IBS subjects
Assay: Study S241.3.011: weekly diary questions on adequate relief
Assay type: in vivo, human
Settings: for Number of months a subject was a responder: Zero months (IBS symptoms) / Overall responder rate, adequate relief of IBS symptoms / Overall responder rate, adequate relief of abdominal pain/discomfort / Overall responder rate, adequate relief of abnormal bowel habits / Number of months a subject was a responder: One month (Abdominal pain/discomfort) / Number of months a subject was a responder: One month (Abnormal bowel habits) / Number of months a subject was a responder: One month (IBS symptoms) / Number of months a subject was a responder: Three months (Abdominal pain/discomfort) / Number of months a subject was a responder: Three months (Abnormal bowel habits) / Number of months a subject was a responder: Three months (IBS symptoms) / Number of months a subject was a responder: Two months (Abdominal pain/discomfort) / Number of months a subject was a responder: Two months (Abnormal bowel habits) / Number of months a subject was a responder: Two months (IBS symptoms) / Number of months a subject was a responder: Zero months (Abdominal pain/discomfort) / Number of months a subject was a responder: Zero months (Abnormal bowel habits): three-month treatment period; for Number of months a subject was a responder: Zero months (IBS symptoms) / Number of months a subject was a responder: One month (Abdominal pain/discomfort) / Number of months a subject was a responder: One month (Abnormal bowel habits) / Number of months a subject was a responder: One month (IBS symptoms) / Number of months a subject was a responder: Three months (Abdominal pain/discomfort) / Number of months a subject was a responder: Three months (Abnormal bowel habits) / Number of months a subject was a responder: Three months (IBS symptoms) / Number of months a subject was a responder: Two months (Abdominal pain/discomfort) / Number of months a subject was a responder: Two months (Abnormal bowel habits) / Number of months a subject was a responder: Two months (IBS symptoms) / Number of months a subject was a responder: Zero months (Abdominal pain/discomfort) / Number of months a subject was a responder: Zero months (Abnormal bowel habits): monthly LOCF; for Overall responder rate, adequate relief of IBS symptoms / Overall responder rate, adequate relief of abdominal pain/discomfort / Overall responder rate, adequate relief of abnormal bowel habits: observed case
Experimental: Study S241.3.011 was a Phase III, double-blind, placebo-controlled, randomized, multinational study to investigate the safety and efficacy of 2 mg TID of cilansetron for a period of 12 weeks followed by a rerandomized, placebo-controlled four-week treatment period, in diarrhea-predominant IBS subjects. The study was conducted in six countries including the US. A total of 2115 subjects consented to participate, and 770 subjects were randomized. A total of 746 subjects were analyzed for efficacy and 755 subjects were analyzed for safety. Diagnosis and main criteria for inclusion were IBS subjects satisfying the Rome I criteria (1992); the diarrhea predominant sub-population of the Rome II criteria; and a minimum abdominal pain/discomfort, stool frequency and consistency determined during the run-in period. Subjects were treated with cilansetron 2 mg tablets given orally TID or matching placebo tablets given orally TID for 12 weeks followed by a rerandomized, placebo-controlled four-week treatment period.
The primary efficacy parameter was the number of months that a subject was a responder for IBS symptoms (abdominal pain, abdominal discomfort, abnormal bowel habits) over the 12-week treatment period. A responder for a month (monthly responder) was defined as a subject who answered the weekly question with “yes” at least twice for that month. The two main secondary efficacy parameters were the monthly responder rates based on the “adequate relief” questions regarding abdominal pain/discomfort and abnormal bowel habits during the 12-week treatment period. The overall response rate and responder rate for the weekly diary questions on adequate relief at each month and all months, the adequate relief rate, the number of subjects with adequate relief by week, daily diary questions, IBS-QOL scores, and the interruption of activities were also assessed. Safety was evaluated by physical examination, ECG, vital signs, laboratory evaluations, concomitant medications, and AEs.
Subjects who were initially randomized to the cilansetron 2 mg TID group and rerandomized to placebo, will be referred to as the C/P treatment group; subjects initially randomized to the placebo group and rerandomized to placebo will be referred to as the P/P treatment group; the P/C and C/C treatment group nomenclature follow the same principle. Of the 591 subjects who completed the three-month treatment period, 576 subjects were rerandomized and thus divided into the following treatment groups: 150 subjects in the C/C treatment group, 140 subjects in the C/P treatment group, 136 subjects in the P/C treatment group, and 150 subjects in the P/P treatment group. Of the 576 subjects rerandomized, a higher percentage of subjects in the C/C treatment group (99%) completed the study compared with the C/P (95%), P/C (93%), and the P/P (95%) treatment groups.
Studies S24 1.3.OO6, S24 1.3.0 1 1, and S24 1.3.009 used the following efficacy measurements: • The subjects answered the following three questions with “yes” or “no” using a phone diary at the end of each week: • a) During the last week, did you experience adequate relief of your IBS symptoms, such as abdominal pain, abdominal discomfort, abnormal bowel habits? • b) During the last week, did you experience adequate relief of your abdominal pain and/or discomfort? • c) During the last week, did you experience adequate relief of your abnormal bowel habits? • The subjects rated the following symptoms using the phone diary at the end of each day: • abdominal pain/discomfort (five-point scale); • stool consistency (seven-point Bristol Stool Scale); • stool frequency (number of bowel movements each day); • urgency (five-point scale); • straining (yes or no); • feeling of incomplete defecation (yes or no); • bloating or feeling of abdominal distension (five-point scale). • In Studies S241 A006 and S241.3.009, subjects completed the IBS-QOL Survey at Baseline (Day 1) and at the end of treatment. […]

[1] = Baseline BMI: <30 kg/m^2, ITT, 2 mg TID
[2] = Baseline BMI: ≧30 kg/m^2, ITT, 2 mg TID
[3] = Baseline severity of IBS: non-severe, ITT, 2 mg TID
[4] = Baseline severity of IBS: severe, ITT, 2 mg TID
[5] = Duration of IBS: >24 months to ≦48 months, 2 mg TID, monthly LOCF imputation, ITT

With `Cc1nccn1C[C@H]1CCc2c(c3cccc4c3n2CCC4)C1=O` [Cilansetron, (R)-(−)-4,5,6,8,9,10-hexahydro-10-[(2-methyl-1H-imidazol-1-yl)methyl]-11H-pyrido-[3,2,1-jk]-carbazol-11-one] the “Number of months a subject was a responder: Zero months (IBS symptoms)” value (“Number … Zero months (IBS symptoms)” below) [1] was 73 (27) n (%), the “Overall responder rate, adequate relief of IBS symptoms” value [1] was 148 (56) n (%) and the “Overall responder rate, adequate relief of abdominal pain/discomfort” value [1] was 158 (59) n (%). The “Overall responder rate, adequate relief of abnormal bowel habits” value [1] was 150 (56) n (%), the “Number of months a subject was a responder: One month (Abdominal pain/discomfort)” value (“Number … One month (Abdominal pain/discomfort)” for short) [2] was 15 (14) n (%) and the “Number of months a subject was a responder: One month (Abnormal bowel habits)” value (“Number … One month (Abnormal bowel habits)” for short) [2] was 17 (15) n (%). The “Number of months a subject was a responder: One month (IBS symptoms)” value (“Number … One month (IBS symptoms)” for short) [2] was 16 (14) n (%), the “Number of months a subject was a responder: Three months (Abdominal pain/discomfort)” value [2] was 46 (41) n (%) and the “Number of months a subject was a responder: Three months (Abnormal bowel habits)” value (“Number … Three months (Abnormal bowel habits)” below) [2] was 45 (41) n (%). For the same compound, the “Number of months a subject was a responder: Three months (IBS symptoms)” value (shortened to “Number … Three months (IBS symptoms)”) [2] was 41 (37) n (%), the “Number of months a subject was a responder: Two months (Abdominal pain/discomfort)” value (“Number … Two months (Abdominal pain/discomfort)” below) [2] was 22 (20) n (%) and the “Number of months a subject was a responder: Two months (Abnormal bowel habits)” value (“Number … Two months (Abnormal bowel habits)” for short) [2] was 15 (14) n (%). For the same compound, the “Number of months a subject was a responder: Two months (IBS symptoms)” value (from here on “Number … Two months (IBS symptoms)”) [2] was 22 (20) n (%), the “Number of months a subject was a responder: Zero months (Abdominal pain/discomfort)” value (“Number … Zero months (Abdominal pain/discomfort)” for short) [2] was 28 (25) n (%) and the “Number of months a subject was a responder: Zero months (Abnormal bowel habits)” value (shortened to “Number … Zero months (Abnormal bowel habits)”) [2] was 34 (31) n (%). For the same compound, the “Number … Zero months (IBS symptoms)” value [2] was 32 (29) n (%), the “Overall responder rate, adequate relief of IBS symptoms” value [2] was 58 (52) n (%) and the “Overall responder rate, adequate relief of abdominal pain/discomfort” value [2] was 63 (57) n (%). For the same compound, the “Overall responder rate, adequate relief of abnormal bowel habits” value [2] was 53 (48) n (%), the “Number … One month (Abdominal pain/discomfort)” value [3] was 25 (11) n (%) and the “Number … One month (Abnormal bowel habits)” value [3] was 26 (12) n (%). For the same compound, the “Number … One month (IBS symptoms)” value [3] was 29 (13) n (%), the “Number of months a subject was a responder: Three months (Abdominal pain/discomfort)” value [3] was 97 (44) n (%) and the “Number … Three months (Abnormal bowel habits)” value [3] was 88 (40) n (%). The “Number … Three months (IBS symptoms)” value [3] was 92 (41) n (%), the “Number … Two months (Abdominal pain/discomfort)” value [3] was 40 (18) n (%) and the “Number … Two months (Abnormal bowel habits)” value [3] was 40 (18) n (%). The “Number … Two months (IBS symptoms)” value [3] was 39 (18) n (%), the “Number … Zero months (Abdominal pain/discomfort)” value [3] was 60 (27) n (%) and the “Number … Zero months (Abnormal bowel habits)” value [3] was 68 (31) n (%). For the same compound, the “Number … Zero months (IBS symptoms)” value [3] was 62 (28) n (%), the “Overall responder rate, adequate relief of IBS symptoms” value [3] was 124 (56) n (%) and the “Overall responder rate, adequate relief of abdominal pain/discomfort” value [3] was 131 (59) n (%). The “Overall responder rate, adequate relief of abnormal bowel habits” value [3] was 121 (55) n (%), the “Number … One month (Abdominal pain/discomfort)” value [4] was 20 (13) n (%) and the “Number … One month (Abnormal bowel habits)” value [4] was 24 (15) n (%). The “Number … One month (IBS symptoms)” value [4] was 25 (16) n (%), the “Number of months a subject was a responder: Three months (Abdominal pain/discomfort)” value [4] was 62 (40) n (%) and the “Number … Three months (Abnormal bowel habits)” value [4] was 61 (39) n (%). The “Number … Three months (IBS symptoms)” value [4] was 56 (36) n (%), the “Number … Two months (Abdominal pain/discomfort)” value [4] was 32 (21) n (%) and the “Number … Two months (Abnormal bowel habits)” value [4] was 26 (17) n (%). The “Number … Two months (IBS symptoms)” value [4] was 31 (20) n (%), the “Number … Zero months (Abdominal pain/discomfort)” value [4] was 41 (26) n (%) and the “Number … Zero months (Abnormal bowel habits)” value [4] was 44 (28) n (%). For the same compound, the “Number … Zero months (IBS symptoms)” value [4] was 43 (28) n (%), the “Overall responder rate, adequate relief of IBS symptoms” value [4] was 82 (53) n (%) and the “Overall responder rate, adequate relief of abdominal pain/discomfort” value [4] was 90 (58) n (%). For the same compound, the “Overall responder rate, adequate relief of abnormal bowel habits” value [4] was 82 (53) n (%), the “Overall responder rate, IBS symptoms” value (Caucasians) was 53% and the “Overall responder rate, abdominal pain/discomfort” value (Caucasians) was 57%. The “Overall responder rate, abnormal bowel habits” value (Caucasians) was 51%, the “Number of months a subject was a responder during the three-month treatment period: Abdominal pain/discomfort, One month” value [5] was 10 (14) n (%) and the “Number of months a subject was a responder during the three-month treatment period: Abdominal pain/discomfort, Three months” value [5] was 32 (44) n (%). For the same compound, the “Number of months a subject was a responder during the three-month treatment period: Abdominal pain/discomfort, Two months” value [5] was 15 (21) n (%), the “Number of months a subject was a responder during the three-month treatment period: Abdominal pain/discomfort, Zero months” value [5] was 15 (21) n (%) and the “Number of months a subject was a responder during the three-month treatment period: Abnormal bowel habits, One month” value [5] was 10 (14) n (%). For the same compound, the “Number of months a subject was a responder during the three-month treatment period: Abnormal bowel habits, Three months” value [5] was 32 (44) n (%).
